Experimental data from a compilation of properties of binary mixtures (doi:10.1016/j.tca.2014.09.015).

Assay: xn = mol fraction of the nth substance listed
Settings: 101 kPa

SMILES | viscosity (303.15 K, x1 = 1) | viscosity (313.15 K, x1 = 1) | viscosity (298.15 K, x2 = 0.2761) | viscosity (298.15 K, x2 = 0.8745) | viscosity (303.15 K, x2 = 0.5594) | viscosity (303.15 K, x2 = 0.8745) | viscosity (308.15 K, x2 = 0.5594) | viscosity (323.15 K, x2 = 0.7786) | viscosity (328.15 K, x2 = 0) | viscosity (328.15 K, x2 = 0.7786) | viscosity (338.15 K, x2 = 0.2761) | viscosity (343.15 K, x2 = 0.2761)
O + CCOS(=O)(=O)[O-].CC[N+]1(C)CCOCC1 | 0.81 mPa·s | 0.68 mPa·s |  |  |  |  |  |  |  |  |  | 
CCOS(=O)(=O)[O-].CC[N+]1(C)CCOCC1 + O |  |  | 690 mPa·s | 7.7 mPa·s | 94 mPa·s | 6.5 mPa·s | 72 mPa·s | 8.8 mPa·s | 780 mPa·s | 7.6 mPa·s | 86 mPa·s | 69 mPa·s
